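Briefly, cells in 96-well plates were exposed to five compound concentrations for 48 h, and endpoints were estimated by linear interpolation. At the GI50, growth is halved. TGI is the concentration that stops growth completely.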
How the values were obtained:
Test in all cases: inhibition of tumour cell growth, NCI panel, 48 h
786-0 renal = system: 786-0 renal
A498 renal = system: A498 renal
A549 NSCLC = system: A549 NSCLC
ACHN renal = system: ACHN renal
BT-549 breast = system: BT-549 breast
CAKI-1 renal = system: CAKI-1 renal
CCRF-CEM leukemia = system: CCRF-CEM leukemia
COLO 205 colon = system: COLO 205 colon
DU-145 prostate = system: DU-145 prostate
EKVX NSCLC = system: EKVX NSCLC
HCC-2998 colon = system: HCC-2998 colon
HCT-116 colon = system: HCT-116 colon
HCT-15 colon = system: HCT-15 colon
HL-60(TB) leukemia = system: HL-60(TB) leukemia
HOP-62 NSCLC = system: HOP-62 NSCLC
HOP-92 NSCLC = system: HOP-92 NSCLC
HS 578T breast = system: HS 578T breast
HT29 colon = system: HT29 colon
IGROV1 ovarian = system: IGROV1 ovarian
K-562 leukemia = system: K-562 leukemia
KM12 colon = system: KM12 colon
LOX IMVI melanoma = system: LOX IMVI melanoma
M14 melanoma = system: M14 melanoma
MALME-3M melanoma = system: MALME-3M melanoma
MCF7 breast = system: MCF7 breast
MDA-MB-231 breast = system: MDA-MB-231 breast
MDA-MB-435 = system: MDA-MB-435
MOLT-4 leukemia = system: MOLT-4 leukemia
NCI-H226 lung = system: NCI-H226 lung
NCI-H23 lung = system: NCI-H23 lung
NCI-H460 lung = system: NCI-H460 lung
NCI-H522 lung = system: NCI-H522 lung
NCI/ADR-RES ovarian = system: NCI/ADR-RES ovarian
OVCAR-3 ovarian = system: OVCAR-3 ovarian
OVCAR-4 ovarian = system: OVCAR-4 ovarian
OVCAR-5 ovarian = system: OVCAR-5 ovarian
OVCAR-8 ovarian = system: OVCAR-8 ovarian
PC-3 prostate = system: PC-3 prostate
RPMI-8226 leukemia = system: RPMI-8226 leukemia
RXF 393 renal = system: RXF 393 renal
SF-268 CNS = system: SF-268 CNS
SF-295 CNS = system: SF-295 CNS
SF-539 CNS = system: SF-539 CNS
SK-MEL-2 melanoma = system: SK-MEL-2 melanoma
SK-MEL-28 melanoma = system: SK-MEL-28 melanoma
SK-MEL-5 melanoma = system: SK-MEL-5 melanoma
SK-OV-3 ovarian = system: SK-OV-3 ovarian
SN12C renal = system: SN12C renal
SNB-19 CNS = system: SNB-19 CNS
SNB-75 CNS = system: SNB-75 CNS
SR leukemia = system: SR leukemia
SW-620 colon = system: SW-620 colon
T-47D breast = system: T-47D breast
TK-10 renal = system: TK-10 renal
U251 CNS = system: U251 CNS
UACC-257 melanoma = system: UACC-257 melanoma
UACC-62 melanoma = system: UACC-62 melanoma
UO-31 renal = system: UO-31 renal

CC(=O)c1ccc2c(c1)N(CCCN(C)C)c1ccccc1S2
GI50 (786-0 renal): 12 µM | TGI (786-0 renal): 25 µM | GI50 (A498 renal): 11.4 µM | TGI (A498 renal): 25.1 µM | GI50 (A549 NSCLC): 17.7 µM | TGI (A549 NSCLC): 34.2 µM | GI50 (ACHN renal): 15.5 µM | TGI (ACHN renal): 30.6 µM | GI50 (BT-549 breast): 12.7 µM | TGI (BT-549 breast): 25.8 µM | GI50 (CAKI-1 renal): 12.6 µM | TGI (CAKI-1 renal): 26.4 µM | GI50 (CCRF-CEM leukemia): 18.5 µM | TGI (CCRF-CEM leukemia): 47.3 µM | GI50 (COLO 205 colon): 3.32 µM | TGI (COLO 205 colon): 11.7 µM | GI50 (DU-145 prostate): 17.1 µM | TGI (DU-145 prostate): 34.3 µM | GI50 (EKVX NSCLC): 13.1 µM | TGI (EKVX NSCLC): 30.9 µM | GI50 (HCC-2998 colon): 14.4 µM | TGI (HCC-2998 colon): 27.6 µM | GI50 (HCT-116 colon): 11.3 µM | TGI (HCT-116 colon): 23.7 µM | GI50 (HCT-15 colon): 16 µM | TGI (HCT-15 colon): 31.2 µM | GI50 (HL-60(TB) leukemia): 14 µM | TGI (HL-60(TB) leukemia): 41 µM | GI50 (HOP-62 NSCLC): 15.6 µM | TGI (HOP-62 NSCLC): 31.6 µM | GI50 (HOP-92 NSCLC): 11.3 µM | TGI (HOP-92 NSCLC): 53.7 µM | GI50 (HS 578T breast): 11.6 µM | TGI (HS 578T breast): 27.8 µM | GI50 (HT29 colon): 11.2 µM | TGI (HT29 colon): 28.4 µM | GI50 (IGROV1 ovarian): 18.8 µM | TGI (IGROV1 ovarian): 44 µM | GI50 (K-562 leukemia): 15.9 µM | TGI (K-562 leukemia): 83.7 µM | GI50 (KM12 colon): 15.7 µM | TGI (KM12 colon): 29.6 µM | GI50 (LOX IMVI melanoma): 12.4 µM | TGI (LOX IMVI melanoma): 25.4 µM | GI50 (M14 melanoma): 14.9 µM | TGI (M14 melanoma): 30 µM | GI50 (MALME-3M melanoma): 17.9 µM | TGI (MALME-3M melanoma): 38.3 µM | GI50 (MCF7 breast): 16.6 µM | TGI (MCF7 breast): 34.5 µM | GI50 (MDA-MB-231 breast): 11.1 µM | TGI (MDA-MB-231 breast): 24.8 µM | GI50 (MDA-MB-435): 11.8 µM | TGI (MDA-MB-435): 25.7 µM | GI50 (MOLT-4 leukemia): 16.8 µM | TGI (MOLT-4 leukemia): 41.2 µM | GI50 (NCI-H226 lung): 21.3 µM | TGI (NCI-H226 lung): 55.1 µM | GI50 (NCI-H23 lung): 17.1 µM | TGI (NCI-H23 lung): 44.4 µM | GI50 (NCI-H460 lung): 18 µM | TGI (NCI-H460 lung): 33.8 µM | GI50 (NCI-H522 lung): 16.2 µM | TGI (NCI-H522 lung): 34.1 µM | GI50 (NCI/ADR-RES ovarian): 13.6 µM | TGI (NCI/ADR-RES ovarian): 28.3 µM | GI50 (OVCAR-3 ovarian): 16.5 µM | TGI (OVCAR-3 ovarian): 31.4 µM | GI50 (OVCAR-4 ovarian): 18.5 µM | TGI (OVCAR-4 ovarian): 65.2 µM | GI50 (OVCAR-5 ovarian): 13.9 µM | TGI (OVCAR-5 ovarian): 27.9 µM | GI50 (OVCAR-8 ovarian): 17.7 µM | TGI (OVCAR-8 ovarian): 37.4 µM | GI50 (PC-3 prostate): 14.2 µM | TGI (PC-3 prostate): 30.2 µM | GI50 (RPMI-8226 leukemia): 18 µM | TGI (RPMI-8226 leukemia): 43.3 µM | GI50 (RXF 393 renal): 8.86 µM | TGI (RXF 393 renal): 22 µM | GI50 (SF-268 CNS): 13.5 µM | TGI (SF-268 CNS): 29.6 µM | GI50 (SF-295 CNS): 11.9 µM | TGI (SF-295 CNS): 25.5 µM | GI50 (SF-539 CNS): 13.7 µM | TGI (SF-539 CNS): 28.2 µM | GI50 (SK-MEL-2 melanoma): 18.1 µM | TGI (SK-MEL-2 melanoma): 35.7 µM | GI50 (SK-MEL-28 melanoma): 16.2 µM | TGI (SK-MEL-28 melanoma): 32 µM | GI50 (SK-MEL-5 melanoma): 13.2 µM | TGI (SK-MEL-5 melanoma): 26.2 µM | GI50 (SK-OV-3 ovarian): 13.1 µM | TGI (SK-OV-3 ovarian): 26.3 µM | GI50 (SN12C renal): 14.5 µM | TGI (SN12C renal): 30.8 µM | GI50 (SNB-19 CNS): 18.6 µM | TGI (SNB-19 CNS): 43.2 µM | GI50 (SNB-75 CNS): 1.99 µM | TGI (SNB-75 CNS): 16.4 µM | GI50 (SR leukemia): 18.7 µM | TGI (SR leukemia): 49.5 µM | GI50 (SW-620 colon): 16.5 µM | TGI (SW-620 colon): 31.8 µM | GI50 (T-47D breast): 16.6 µM | TGI (T-47D breast): 39.6 µM | GI50 (TK-10 renal): 14.7 µM | TGI (TK-10 renal): 29.5 µM | GI50 (U251 CNS): 15.1 µM | TGI (U251 CNS): 32.1 µM | GI50 (UACC-257 melanoma): 18.7 µM | TGI (UACC-257 melanoma): 37.8 µM | GI50 (UACC-62 melanoma): 14.9 µM | TGI (UACC-62 melanoma): 29.1 µM | GI50 (UO-31 renal): 13.5 µM | TGI (UO-31 renal): 29.1 µM

— PubChem BioAssay (NCI)
